This is an account of results in patent publication US11857544B2, “Composition or method including (t)ew-7197 for treating or preventing corneal endothelial diseases” (THE DOSHISHA, priority 2017, dated 2024).

Each structure is given as a SMILES string.

One assay relates to fibronectin. In words: Area of fibronectin expression by immunostaining, Col8a2 knock-in mice (Example 5). It is filed as in vivo. The conditions noted are these: 0.02% eye drop, 8 weeks. The protocol: 5 μL of 0.02% (about 0.5 mM) EW-7197 eye drop or a base agent (7% DMSO containing PBS) was administered as an eye drop to both eyes of 4-month-old alpha 2 collagen 8 gene (Col8a2) knock-in mice 4 times a day for 8 weeks. The corneal endothelial cell density was measured using a specular microscope KS3M (Konan Medical, Inc.) at before eye drops, and 2, 4, 6, and 8 weeks after eye drops. Mice were euthanized by intraperitoneally administering an excessive amount (200 mg/kg body weight or greater) of anesthetic injection Somnopentyl (Kyoritsu Seiyaku Corporation) 8 weeks after injection. After confirming cardiac arrest, both eye balls were harvested. The harvested eye balls were incised to prepare a corneal fragment. Immunostaining of type I collagen and fibronectin was performed as follows. Image-Pro (Nippon Roper K.K.) was used to analyze the area of type I collagen and fibronectin expression.
After immobilizing a mouse corneal fragment for 10 minutes at room temperature in 4% paraformaldehyde, 0.5% TritonX-100 was added and allowed to permeate for 5 minutes. 1% bovine serum albumin (BSA) was added and the fragment was incubated for 1 hour at room temperature. The corneal fragment was then immersed in a primary antibody solution and reacted overnight at 4° C. […]

In another assay the test system is Col8a2 knock-in mice. Description: Corneal endothelial cell density after eye drops in Col8a2 knock-in mice (Example 6, 12 weeks). It is filed as in vivo. The conditions noted are these: eye drop group (0.02%, 0.1%). The protocol:
5 μL of 0.02% (about 0.5 mM) EW-7197 eye drop, 0.1% (about 2.5 mM) EW-7197 eye drop, or a base agent (DMSO containing phosphate buffer) was administered as an eye drop to both eyes of 4-month-old alpha 2 collagen 8 gene (Col8a2) knock-in mice 4 times a day for 12 weeks. A surfactant was added to the base agent as needed. Those skilled in the art can use an appropriate and suitable surfactant (Kenji Motose (1984). “Tenganzai” [Eye drops] Nanzando; International Pharmaceutical Excipients Council Japan (2016). “Iyakuhin Tenkabutsu Jiten” [Pharmaceutical Excipient Encyclopedia] Yakuji Nippo, Limited). The corneal endothelial cell density was measured using a specular microscope KS3M (Konan Medical, Inc.) at before eye drops, and 3, 6, 9, and 12 weeks after eye drops. Mice were euthanized by intraperitoneally administering an excessive amount (200 mg/kg body weight or greater) of anesthetic injection Somnopentyl (Kyoritsu Seiyaku Corporation) 12 weeks after injection. After confirming cardiac arrest, both eye balls were harvested. The harvested eye balls were incised to prepare a corneal fragment. Immunostaining of fibronectin was performed. The immunostaining method was the following. Image-Pro (Nippon Roper K.K.) was used to analyze the area of fibronectin expression.

For `Cc1cccc(-c2[nH]c(CNc3ccccc3F)nc2-c2ccc3ncnn3c2)n1` [EW-7197, N-((4-([1,2,4]triazolo[1,5-a]pyridin-6-yl)-5-(6-methylpyridin-2-yl)-1H-imidazol-2-yl)methyl)-2-fluoroaniline], the “area of fibronectin expression compared to the base agent group” value in the assay with fibronectin is on record as “decreasing trend”. Besides, in the assay on Col8a2 knock-in mice (up to week 6), the “corneal endothelial density at the center section of the cornea” value is on record as “tendency for suppressing a decrease”. The “corneal endothelial density at the center section of the cornea vs base agent eye drop group” value in the assay with Col8a2 knock-in mice (week 12) was “a significant difference in the corneal endothelial density at the center section of the cornea was not observed”.
